In US20120010179A1, “Methods of using a thiazole derivative” (priority 2006, published 2012):

Test system: patients with COPD
Assay: Pulmonary function tests (spirometry FEV1, FVC), tetomilast with inhaled albuterol, crossover study (Example 1)
Type: in vivo, human
Conditions: for Estimated Treatment Effect, change from baseline in FEV1 (tetomilast versus placebo) / Estimated Treatment Effect, change from baseline in FVC (tetomilast versus placebo) / LS Mean change from baseline in FEV1 (repeated measures ANOVA) / LS Mean change from baseline in FVC (repeated measures ANOVA) / Mean (SD) change from baseline in FEV1 / Mean (SD) change from baseline in FVC: Baseline (Day 0); for Estimated Treatment Effect, change from baseline in FEV1 (tetomilast versus placebo) / Estimated Treatment Effect, change from baseline in FVC (tetomilast versus placebo): both with inhaled albuterol; for LS Mean change from baseline in FEV1 (repeated measures ANOVA) / LS Mean change from baseline in FVC (repeated measures ANOVA) / Mean (SD) change from baseline in FEV1 / Mean (SD) change from baseline in FVC: tetomilast 50 mg QD + inhaled albuterol
Method: Pulmonary function tests were conducted throughout the study to monitor the subjects' respiratory status. Flow volume curves were collected via spirometry. Combivent® (Boehringer Ingleheim Pharmaceuticals, Inc., Ridgefield Conn.), which was used for short-acting rescues as needed throughout the studies described below, was withheld for 6 hours prior to any spirometric testing. Spirometry testing was performed at screening, baseline (Day 0), and at specific times during the treatment period. Each subject could have up to 5 spirometric readings at any study time point. Spirometric readings were performed using equipment from the central provider, Quantum Research, Inc. (Louisville, Colo.). All spirometry readings were recorded and sent to Quantum Research, Inc. for analysis
For the spirometric readings, the best effort was reported as follows. The highest acceptable forced expiratory volume in one second (FEV1) value was selected as the “best” of the given test session. If two or more FEV1 values were tied as highest, the sum of FEV1 and forced vital capacity (FVC) for those efforts was used. If both conditions were equal between the two efforts, the values reported were taken from the effort that occurred first, chronologically, based on date and time of the effort.
This study was a multicenter, randomized, double-blind, placebo-controlled, crossover, multiple dose, outpatient study in 27 patients with COPD. All subjects underwent a 28-day washout from inhaled corticosteroids and/or long-acting bronchodilators and/or continuous oxygen therapy (≧16 hours per day) and a 7-day washout from oral beta2-agonists and/or oral theophylline salts prior to baseline. Randomized subjects received an 8-day administration of oral placebo or tetomilast 50 mg oral dose (2×25 mg tablets) once daily (QD). On study Day 8, four consecutive doses of inhaled albuterol (90 μg albuterol base per puff) were given via a metered dose inhaler (MDI) and holding chamber (Ventolin®, GlaxoSmithKline, Research Triangle Park, N.C.), one dose every 30 minutes over the course of 90 minutes at doses of 90 μg+90 μg+180 μg+360 μg for a total dose of 720 μg (albuterol base) or 8 puffs.
Subjects entered a 7-day washout period (study days 9 through 15) and were then crossed over to the alternate treatment arm (placebo or tetomilast 50 mg oral dose). On study [0105] Day 23, the inhaled albuterol multiple dosing was repeated.
On Days 1-6 and 17-21, subjects were instructed to take their oral study medication (placebo or tetomilast 50 mg) QD with 8 ounces of water immediately before breakfast. Subjects assigned to the placebo arm received two placebo tablets QD. On Days 7, 8, 16, 22, and 23, subjects took their oral medication (placebo or tetomilast 50 mg) at the clinic in the presence of the study staff.
Combivent® inhalation aerosol use was allowed for short-acting rescue as needed throughout the study except on study days where PK samples were collected, on days when the multiple doses of inhaled albuterol were administered in the clinic, and/or on days when spirometry testing was performed. On all study days where PK samples were collected, Combivent® was withheld 6 hours prior to the PK draw. Additionally, on study Days 8 and 23 (when the multiple doses of inhaled albuterol were administered in the clinic), Combivent® was withheld 6 hours prior to PK assessment and throughout the duration of the clinic visit. Combivent® was withheld for six hours prior to spirometry testing. The recommended dose of Combivent® Inhalation Aerosol is two inhalations four times a day. In this study, subjects were permitted to take additional inhalations as required; however, the total number of inhalations was not to exceed 12 in 24 hours. Subjects were to “test-spray” three times before using for the first time and in cases where the aerosol had not been used for more than 24 hours. […]

## CCOc1ccc(-c2nc(-c3cccc(C(=O)O)n3)cs2)cc1OCC [Tetomilast, 2-(3,4-diethoxyphenyl)-4-(2-carboxy-6-pyridyl)thiazole]
Day 8/23, 5 min postdose
  Estimated Treatment Effect, change from baseline in FEV1 (tetomilast versus placebo): 0.02 L
  Estimated Treatment Effect, change from baseline in FVC (tetomilast versus placebo): 0.06 L
  LS Mean change from baseline in FEV1 (repeated measures ANOVA): 0.19 L
  LS Mean change from baseline in FVC (repeated measures ANOVA): 0.31 L
  Mean (SD) change from baseline in FEV1: 0.19 (0.19) L
  Mean (SD) change from baseline in FVC: 0.30 (0.28) L
Day 8/23, 25 min postdose
  Estimated Treatment Effect, change from baseline in FEV1 (tetomilast versus placebo): 0.06 L
  Estimated Treatment Effect, change from baseline in FVC (tetomilast versus placebo): 0.11 L
  LS Mean change from baseline in FEV1 (repeated measures ANOVA): 0.21 L
  LS Mean change from baseline in FVC (repeated measures ANOVA): 0.31 L
  Mean (SD) change from baseline in FEV1: 0.21 (0.20) L
  Mean (SD) change from baseline in FVC: 0.31 (0.38) L
Day 8/23, 35 min postdose
  Estimated Treatment Effect, change from baseline in FEV1 (tetomilast versus placebo): 0.05 L
  Estimated Treatment Effect, change from baseline in FVC (tetomilast versus placebo): 0.09 L
  LS Mean change from baseline in FEV1 (repeated measures ANOVA): 0.26 L
  LS Mean change from baseline in FVC (repeated measures ANOVA): 0.41 L
  Mean (SD) change from baseline in FEV1: 0.26 (0.18) L
  Mean (SD) change from baseline in FVC: 0.41 (0.34) L
Day 8/23, 55 min postdose
  Estimated Treatment Effect, change from baseline in FEV1 (tetomilast versus placebo): 0.08 L
  Estimated Treatment Effect, change from baseline in FVC (tetomilast versus placebo): 0.15 L
  LS Mean change from baseline in FEV1 (repeated measures ANOVA): 0.28 L
  LS Mean change from baseline in FVC (repeated measures ANOVA): 0.39 L
  Mean (SD) change from baseline in FEV1: 0.28 (0.19) L
  Mean (SD) change from baseline in FVC: 0.38 (0.31) L
Day 8/23, 65 min postdose
  Estimated Treatment Effect, change from baseline in FEV1 (tetomilast versus placebo): 0.08 L
  Estimated Treatment Effect, change from baseline in FVC (tetomilast versus placebo): 0.18 L
  LS Mean change from baseline in FEV1 (repeated measures ANOVA): 0.32 L
  LS Mean change from baseline in FVC (repeated measures ANOVA): 0.51 L
  Mean (SD) change from baseline in FEV1: 0.32 (0.19) L
  Mean (SD) change from baseline in FVC: 0.52 (0.37) L
Day 8/23, 85 min postdose
  Estimated Treatment Effect, change from baseline in FEV1 (tetomilast versus placebo): 0.07 L
  Estimated Treatment Effect, change from baseline in FVC (tetomilast versus placebo): 0.13 L
  LS Mean change from baseline in FEV1 (repeated measures ANOVA): 0.33 L
  LS Mean change from baseline in FVC (repeated measures ANOVA): 0.48 L
  Mean (SD) change from baseline in FEV1: 0.33 (0.19) L
  Mean (SD) change from baseline in FVC: 0.47 (0.37) L
Day 8/23, 95 min postdose
  Estimated Treatment Effect, change from baseline in FEV1 (tetomilast versus placebo): 0.07 L
  Estimated Treatment Effect, change from baseline in FVC (tetomilast versus placebo): 0.19 L
  LS Mean change from baseline in FEV1 (repeated measures ANOVA): 0.36 L
  LS Mean change from baseline in FVC (repeated measures ANOVA): 0.55 L
  Mean (SD) change from baseline in FEV1: 0.36 (0.19) L
  Mean (SD) change from baseline in FVC: 0.55 (0.40) L
Day 8/23, 115 min postdose
  Estimated Treatment Effect, change from baseline in FEV1 (tetomilast versus placebo): 0.07 L
  Estimated Treatment Effect, change from baseline in FVC (tetomilast versus placebo): 0.18 L
  LS Mean change from baseline in FEV1 (repeated measures ANOVA): 0.35 L
  LS Mean change from baseline in FVC (repeated measures ANOVA): 0.54 L
  Mean (SD) change from baseline in FEV1: 0.35 (0.18) L
  Mean (SD) change from baseline in FVC: 0.53 (0.44) L
Day 8/23, 175 min postdose
  Estimated Treatment Effect, change from baseline in FEV1 (tetomilast versus placebo): 0.09 L
  Estimated Treatment Effect, change from baseline in FVC (tetomilast versus placebo): 0.15 L
  LS Mean change from baseline in FEV1 (repeated measures ANOVA): 0.36 L
  LS Mean change from baseline in FVC (repeated measures ANOVA): 0.53 L
  Mean (SD) change from baseline in FEV1: 0.36 (0.21) L
  Mean (SD) change from baseline in FVC: 0.52 (0.36) L
Day 8/23, 235 min postdose
  Estimated Treatment Effect, change from baseline in FEV1 (tetomilast versus placebo): 0.07 L
  Estimated Treatment Effect, change from baseline in FVC (tetomilast versus placebo): 0.09 L
  LS Mean change from baseline in FEV1 (repeated measures ANOVA): 0.34 L
  LS Mean change from baseline in FVC (repeated measures ANOVA): 0.42 L
  Mean (SD) change from baseline in FEV1: 0.34 (0.25) L
  Mean (SD) change from baseline in FVC: 0.42 (0.48) L
Day 8/23, 295 min postdose
  Estimated Treatment Effect, change from baseline in FEV1 (tetomilast versus placebo): 0.05 L
  Estimated Treatment Effect, change from baseline in FVC (tetomilast versus placebo): 0.19 L
  LS Mean change from baseline in FEV1 (repeated measures ANOVA): 0.25 L
  LS Mean change from baseline in FVC (repeated measures ANOVA): 0.38 L
  Mean (SD) change from baseline in FEV1: 0.25 (0.29) L
  Mean (SD) change from baseline in FVC: 0.37 (0.49) L
Day 8/23, 355 min postdose
  Estimated Treatment Effect, change from baseline in FEV1 (tetomilast versus placebo): 0.13 L
  Estimated Treatment Effect, change from baseline in FVC (tetomilast versus placebo): 0.24 L
  LS Mean change from baseline in FEV1 (repeated measures ANOVA): 0.25 L
  LS Mean change from baseline in FVC (repeated measures ANOVA): 0.34 L
  Mean (SD) change from baseline in FEV1: 0.25 (0.24) L
  Mean (SD) change from baseline in FVC: 0.34 (0.39) L
Inhaled albuterol combined with tetomilast versus inhaled albuterol alone, Day 8/23
  effect on inhaled albuterol response (FEV1, FVC), exploratory repeated measures analysis: possible potentiation of the effect of inhaled albuterol
Predose Day 8/23, on tetomilast 50 mg QD, prior to inhaled albuterol
  FEV1 steady-state (predose) baseline value, Mean (SD): 1.40 (0.61) L
